Assay results from patent US20240366589A1, “NHE3-BINDING COMPOUNDS AND METHODS FOR INHIBITING PHOSPHATE TRANSPORT” (Ardelyx, Inc., priority 2013, published 2024).

Tests used:
[1] = system: phosphorus and calcium levels in the urine of rats; test: Urinary excretion of phosphate and calcium in rats (16 h overnight urine); assay type: in vivo, rat; conditions: rats, oral gavage, 16 h post-dose
[2] = system: absorption of sodium from the intestinal lumen; test: Fecal form score (FFS) 16 h after oral dose in rats; assay type: in vivo, rat; conditions: oral gavage, 16 h post-dose, scale 1-5
Method in brief: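 Eight-week-old Sprague-Dawley rats (n=6) dosed by oral gavage with compound or water vehicle between 4 and 5 PM, then housed in metabolic cages with food and water ad libitum. At 16 h, fecal form scored 1 (normal pellet) to 5 (liquid streams) by two observers; group mean reported.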

[3] = target: T1, Human NHE3 (Homo sapiens, UniProt P48764); test: Cell-based NHE3 activity under prompt conditions (OK cells, BCECF pH recovery), human NHE3; conditions: prompt conditions
T1 construct: expressed in transfected cells; host or cells: Opossum kidney (OK) cells (ATCC), electroporation
T1 sequence (P48764 26-834): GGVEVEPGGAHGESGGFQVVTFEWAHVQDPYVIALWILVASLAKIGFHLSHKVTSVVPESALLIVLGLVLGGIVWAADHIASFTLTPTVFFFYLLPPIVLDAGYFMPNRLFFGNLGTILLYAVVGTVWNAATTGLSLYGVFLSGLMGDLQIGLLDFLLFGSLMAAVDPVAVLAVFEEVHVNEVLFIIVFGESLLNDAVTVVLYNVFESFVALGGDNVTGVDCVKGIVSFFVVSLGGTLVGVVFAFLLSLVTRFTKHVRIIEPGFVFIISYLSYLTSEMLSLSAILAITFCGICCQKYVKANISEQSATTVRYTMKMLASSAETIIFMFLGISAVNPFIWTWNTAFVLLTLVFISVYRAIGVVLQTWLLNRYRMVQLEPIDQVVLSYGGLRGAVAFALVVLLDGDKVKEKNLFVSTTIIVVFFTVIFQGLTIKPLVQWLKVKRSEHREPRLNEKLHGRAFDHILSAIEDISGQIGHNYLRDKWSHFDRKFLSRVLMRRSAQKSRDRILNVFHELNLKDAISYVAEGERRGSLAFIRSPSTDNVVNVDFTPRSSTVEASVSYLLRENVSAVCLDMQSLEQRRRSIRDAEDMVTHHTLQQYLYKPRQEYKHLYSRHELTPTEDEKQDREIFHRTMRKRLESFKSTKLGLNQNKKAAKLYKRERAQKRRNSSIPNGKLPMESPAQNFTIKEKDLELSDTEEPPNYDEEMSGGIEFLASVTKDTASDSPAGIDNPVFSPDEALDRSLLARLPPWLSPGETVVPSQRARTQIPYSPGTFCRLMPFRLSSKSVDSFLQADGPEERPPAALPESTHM
Method in brief: (§1)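 Cells (OK line, electroporated with rat or human NHE3) are washed in NaCl-HEPES pH 7.4, then dye-loaded 30 min at room temperature with 5 μM BCECF-AM in NH4Cl buffer.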

[4] = system: absorption of sodium from the intestinal lumen; test: Inhibition of intestinal sodium absorption: urinary sodium (uNa) 16 h after single oral dose in rats; assay type: in vivo, rat; conditions: oral gavage, 16 h post-dose
Method in brief: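 Eight-week-old Sprague-Dawley rats (n=6) given single oral gavage of compound or water vehicle in the late afternoon, then kept in metabolic cages with chow and water ad libitum. Urine collected over 16 h; sodium quantified by ion chromatography and expressed as % of vehicle mean, compared by one-way ANOVA with Dunnett's test.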

[5] = target: T2, Rat NHE3 (Rattus norvegicus, UniProt P26433); test: Cell-based NHE3 activity under prompt conditions (OK cells, BCECF pH recovery), rat NHE3; conditions: prompt conditions
T2 construct: expressed in transfected cells; host or cells: Opossum kidney (OK) cells (ATCC), electroporation
T2 sequence (P26433 29-831): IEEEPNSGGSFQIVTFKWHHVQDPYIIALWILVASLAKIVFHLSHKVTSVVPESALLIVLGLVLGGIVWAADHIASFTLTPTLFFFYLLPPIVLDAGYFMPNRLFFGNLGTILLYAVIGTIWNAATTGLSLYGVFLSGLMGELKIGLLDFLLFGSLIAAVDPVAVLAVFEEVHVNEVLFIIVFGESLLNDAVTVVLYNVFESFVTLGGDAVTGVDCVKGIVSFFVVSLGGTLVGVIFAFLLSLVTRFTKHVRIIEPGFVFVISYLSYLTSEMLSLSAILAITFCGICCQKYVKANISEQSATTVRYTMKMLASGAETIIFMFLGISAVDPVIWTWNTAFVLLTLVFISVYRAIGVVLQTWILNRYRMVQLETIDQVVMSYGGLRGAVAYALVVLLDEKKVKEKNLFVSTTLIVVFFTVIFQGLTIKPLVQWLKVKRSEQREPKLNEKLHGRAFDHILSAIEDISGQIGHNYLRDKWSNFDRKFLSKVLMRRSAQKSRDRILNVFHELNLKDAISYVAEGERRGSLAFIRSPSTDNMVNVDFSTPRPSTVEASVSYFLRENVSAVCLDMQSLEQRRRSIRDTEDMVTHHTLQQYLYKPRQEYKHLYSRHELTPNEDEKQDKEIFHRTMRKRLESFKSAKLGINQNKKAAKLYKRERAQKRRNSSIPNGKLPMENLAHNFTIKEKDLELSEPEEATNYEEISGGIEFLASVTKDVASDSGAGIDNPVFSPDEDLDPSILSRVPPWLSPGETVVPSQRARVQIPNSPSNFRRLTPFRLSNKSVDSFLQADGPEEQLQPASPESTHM
Method in brief: as §1

Compound | Prompt Human NHE3 pIC50 [3] | IC50 ([5]; read-out: Prompt Rat NHE3 pIC50 (converted)) [nM] | Prompt Rat NHE3 pIC50 [5] | Urine P % of control ([1]; dose 1 mg/kg) [%] | Urine P % of control ([1]; dose 3 mg/kg) [%] | Urine P % of control ([1]; dose 10 mg/kg) [%] | Fecal Form Score average ([2]; dose 1 mg/kg) | Fecal Form Score average ([2]; dose 3 mg/kg) | Fecal Form Score average ([2]; dose 10 mg/kg) | Urine Na % of control ([4]; dose 1 mg/kg) [%] | Urine Na % of control ([4]; dose 3 mg/kg) [%] | Urine Na % of control ([4]; dose 10 mg/kg) [%] | Urine P % of control ([1]; dose 8 mg/kg) [%] | Fecal Form Score average ([2]; dose 8 mg/kg) | Urine Na % of control ([4]; dose 8 mg/kg) [%]
CN1Cc2c(Cl)cc(Cl)cc2[C@H](c2cccc(S(=O)(=O)NCCOCCOCCOCCNC(=O)CCN(CCC(=O)NCCOCCOCCOCCNS(=O)(=O)c3cccc([C@@H]4CN(C)Cc5c(Cl)cc(Cl)cc54)c3)CCC(=O)NCCOCCOCCOCCNS(=O)(=O)c3cccc([C@@H]4CN(C)Cc5c(Cl)cc(Cl)cc54)c3)c2)C1 [compound 79] | 7.20 | 316 | – | 109 | 81 | 33 | 1 | 2 | 3 | 65 | 44 | 17 | – | – | –
CN1Cc2c(Cl)cc(Cl)cc2[C@H](c2cccc(S(=O)(=O)NCCOCCOCCNC(=O)CCN(CCC(=O)NCCOCCOCCNS(=O)(=O)c3cccc([C@@H]4CN(C)Cc5c(Cl)cc(Cl)cc54)c3)CCC(=O)NCCOCCOCCNS(=O)(=O)c3cccc([C@@H]4CN(C)Cc5c(Cl)cc(Cl)cc54)c3)c2)C1 [compound 80] | 6.93 | – | 5.50 | 70 | 39 | 21 | 1 | 2 | 3 | 66 | 55 | 9 | – | – | –
CN1Cc2c(Cl)cc(Cl)cc2[C@H](c2cccc(S(=O)(=O)NCCOCCOCCNC(=O)CN(CCN(CC(=O)O)CC(=O)NCCOCCOCCNS(=O)(=O)c3cccc([C@@H]4CN(C)Cc5c(Cl)cc(Cl)cc54)c3)CC(=O)O)c2)C1 [compound 81] | 7.90 | – | 7.90 | – | – | 42 | – | – | 2 | – | – | 11 | – | – | –
CN1Cc2c(Cl)cc(Cl)cc2[C@H](c2cccc(S(=O)(=O)NCCOCCOCCNC(=O)CN(CCOCCOCCN(CC(=O)NCCOCCOCCNS(=O)(=O)c3cccc([C@@H]4CN(C)Cc5c(Cl)cc(Cl)cc54)c3)CC(=O)NCCOCCOCCNS(=O)(=O)c3cccc([C@@H]4CN(C)Cc5c(Cl)cc(Cl)cc54)c3)CC(=O)NCCOCCOCCNS(=O)(=O)c3cccc([C@@H]4CN(C)Cc5c(Cl)cc(Cl)cc54)c3)c2)C1 [compound 85] | 6.10 | – | 5.80 | – | – | 85 | – | – | 1 | – | – | 92 | – | – | –

Now from value to compound, other results behind:

Prompt Human NHE3 pIC50 [3] | IC50 ([5]; read-out: Prompt Rat NHE3 pIC50 (converted)) [nM] | Prompt Rat NHE3 pIC50 [5] | Compound | Urine P % of control ([1]; dose 1 mg/kg) [%] | Urine P % of control ([1]; dose 3 mg/kg) [%] | Urine P % of control ([1]; dose 10 mg/kg) [%] | Fecal Form Score average ([2]; dose 1 mg/kg) | Fecal Form Score average ([2]; dose 3 mg/kg) | Fecal Form Score average ([2]; dose 10 mg/kg) | Urine Na % of control ([4]; dose 1 mg/kg) [%] | Urine Na % of control ([4]; dose 3 mg/kg) [%] | Urine Na % of control ([4]; dose 10 mg/kg) [%] | Urine P % of control ([1]; dose 8 mg/kg) [%] | Fecal Form Score average ([2]; dose 8 mg/kg) | Urine Na % of control ([4]; dose 8 mg/kg) [%]
<5.00 | – | <5.00 | CN1Cc2c(Cl)cc(Cl)cc2[C@H](c2cccc(S(=O)(=O)NCCOCCOCCNC(=O)NCCN(CCNC(=O)NCCOCCOCCNS(=O)(=O)c3cccc([C@@H]4CN(C)Cc5c(Cl)cc(Cl)cc54)c3)C(=O)CCCCCCCCCCC(=O)N(CCNC(=O)NCCOCCOCCNS(=O)(=O)c3cccc([C@@H]4CN(C)Cc5c(Cl)cc(Cl)cc54)c3)CCNC(=O)NCCOCCOCCNS(=O)(=O)c3cccc([C@@H]4CN(C)Cc5c(Cl)cc(Cl)cc54)c3)c2)C1 [compound 83] | – | – | 59 | – | – | 1 | – | – | 82 | – | – | –
7.70 | – | 7.50 | CN1Cc2c(Cl)cc(Cl)cc2[C@H](c2cccc(S(=O)(=O)NCCOCCOCCOCCNC(=O)CC(CC(=O)NCCOCCOCCOCCNS(=O)(=O)c3cccc([C@@H]4CN(C)Cc5c(Cl)cc(Cl)cc54)c3)C(=O)NCCOCCOCCOCCNS(=O)(=O)c3cccc([C@@H]4CN(C)Cc5c(Cl)cc(Cl)cc54)c3)c2)C1 [compound 84] | – | – | – | – | – | – | – | – | – | 47 | 3 | 7
